“And” between values parts separate entries of the source, which are not always exact repeats. Equal entries are not always repeated.
Legend:
[1] = molecular target: Tryptophan--tRNA ligase (Mycobacterium tuberculosis (strain ATCC 25618 / H37Rv), UniProt P9WFT3); experiment: Biochemical assay for Mt-TrpRS; format: functional
[2] = test system: Schistosoma mansoni; experiment: High throughput screening of compounds against Schistosoma mansoni motility; format: functional; set-up: dose or concentration left out as unconfirmed
[3] = molecular target: T1, Histidine--tRNA ligase (Leishmania infantum, UniProt A4I591); experiment: Leishmania infantum Histidine tRNA synthetase (LdHisRS); format: functional
T1 sequence (A4I591 whole entry): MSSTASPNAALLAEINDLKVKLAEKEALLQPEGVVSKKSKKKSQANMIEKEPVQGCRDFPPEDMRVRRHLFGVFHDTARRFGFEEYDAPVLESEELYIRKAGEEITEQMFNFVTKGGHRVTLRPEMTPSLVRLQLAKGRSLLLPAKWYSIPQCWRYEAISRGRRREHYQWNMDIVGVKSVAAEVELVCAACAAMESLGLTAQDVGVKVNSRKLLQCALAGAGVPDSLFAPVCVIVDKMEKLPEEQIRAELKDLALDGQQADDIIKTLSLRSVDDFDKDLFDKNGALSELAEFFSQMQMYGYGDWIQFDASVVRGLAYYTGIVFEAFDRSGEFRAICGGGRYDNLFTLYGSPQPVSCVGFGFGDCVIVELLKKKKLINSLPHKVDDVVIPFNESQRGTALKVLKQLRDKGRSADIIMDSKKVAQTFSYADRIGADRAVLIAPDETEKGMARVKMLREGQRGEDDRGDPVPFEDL

[4] = test system: Plasmodium falciparum; experiment: Calibr Malaria Delayed Death Assay SOP; format: functional, organism-based
[5] = microbe, parasite or virus in culture; conditions: Mycobacterium tuberculosis, 72 h, read-out: pIC50 (converted)
[6] = microbe, parasite or virus in culture; conditions: Mycobacterium tuberculosis, 96 h, read-out: pIC50 (converted)
[7] = molecular target: ClpP1P2 (Mycobacterium tuberculosis (strain ATCC 25618 / H37Rv), UniProt P9WPC3+P9WPC5); experiment: in vitro assay to detect presence of AMC directly proportional to the activity of ClpP1P2. GHDDI collaboration.; format: functional
ClpP1P2, sequence (P9WPC5 whole entry): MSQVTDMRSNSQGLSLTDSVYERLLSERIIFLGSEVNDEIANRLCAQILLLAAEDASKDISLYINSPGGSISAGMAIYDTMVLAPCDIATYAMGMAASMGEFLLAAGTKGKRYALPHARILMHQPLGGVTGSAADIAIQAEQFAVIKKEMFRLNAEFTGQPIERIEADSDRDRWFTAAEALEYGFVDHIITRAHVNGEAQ
ClpP1P2, sequence (P9WPC3 whole entry): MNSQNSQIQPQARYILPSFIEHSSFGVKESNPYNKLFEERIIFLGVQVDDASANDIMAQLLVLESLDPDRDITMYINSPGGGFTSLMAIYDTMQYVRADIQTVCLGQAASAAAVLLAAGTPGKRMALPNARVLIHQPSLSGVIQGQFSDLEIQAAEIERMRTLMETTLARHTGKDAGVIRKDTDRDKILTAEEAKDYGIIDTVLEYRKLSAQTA

[8] = In vitro enzyme assay to detect hydrolysis of chlorophenol red-beta-D-[…] directly proportional to the number of Toxoplasma stably expressing beta-galactosidase; format: functional, organism-based, Toxoplasma gondii; conditions: Toxoplasma gondii

Tryptophan--tRNA ligase, sequence (P9WFT3 whole entry): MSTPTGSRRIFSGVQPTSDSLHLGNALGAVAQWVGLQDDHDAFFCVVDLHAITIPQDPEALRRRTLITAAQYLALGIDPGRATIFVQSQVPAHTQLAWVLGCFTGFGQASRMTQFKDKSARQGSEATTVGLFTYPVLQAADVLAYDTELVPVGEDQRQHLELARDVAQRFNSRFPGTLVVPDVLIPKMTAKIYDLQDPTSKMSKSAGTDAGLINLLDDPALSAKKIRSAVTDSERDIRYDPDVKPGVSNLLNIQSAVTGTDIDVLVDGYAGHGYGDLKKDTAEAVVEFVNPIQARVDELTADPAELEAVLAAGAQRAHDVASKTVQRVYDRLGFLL

Row | SMILES | IC50 [1] [µM] | Percent Effect [2] [%] | IC50 [3] | also measured
1 | O=C1CN(Cc2nnc(-c3ccc(Br)cc3)o2)CCN1 | > 195 | -48.54 | – | –
2 | CC(=O)N(Cc1noc(C)n1)C1CCN(Cc2cccc(C#N)c2)C1 (centres undefined) | – | – | > 100 µM | –
3 | CCCn1nc2c(cc1=O)CN(Cc1cc(C)on1)CC2 | – | – | 80.7 µM and 80.3 µM | –
4 | c1cncc(NCCNC2CCSC2)c1 (centres undefined) | – | – | 31.9 µM and 23 µM | –
5 | O=C(CN1CCc2cncnc2C1)NCCOc1ccccc1 | – | – | 74.1 µM and 60.5 µM | –
6 | CN(C)CCN1CCO[C@@H]2CCN(C(=O)c3cccn3C)CC[C@H]21 | – | – | > 100 µM | –
7 | COc1ccc(C(NCc2cccc(O)c2)C2CC2)cc1 (centres undefined) | – | – | 26.9 µM and 20.1 µM | –
8 | Cn1nc2c(cc1=O)CN(Cc1nc(-c3ccccn3)no1)CC2 | – | – | > 100 µM | –
9 | Cc1c(CN2CCCCC2)c(O)n(CCO)c(=O)c1C#N | – | – | 34.4 µM and 35.9 µM | –
10 | COCCCN(C)C(=O)Cn1cccc(OC)c1=O | – | – | 66 µM and 57.5 µM | –
11 | CO[C@H]1CCN(Cc2ccoc2)C[C@@H]1Cc1ccccc1.O=C(O)C(F)(F)F | > 195 | – | – | pIC50 [4]: 5.889; IC50 ([4]; Plasmodium falciparum): 1.2 µM
12 | COc1ccc(-c2noc(CN3CCc4cncnc4C3)n2)cc1 | – | – | > 100 µM | –
13 | NCCc1cccc(CN2CCN(c3ccccc3)C(=O)C2)c1 | – | – | 26.8 µM and 20.5 µM | –
14 | Cc1c(CN2CCOCC2)c(O)n(CCc2ccccc2)c(=O)c1C#N | – | – | 23.3 µM and 19.8 µM | –
15 | Cc1cc(C(=O)NCC(F)(F)F)c2c(C3CCCN3)noc2n1 (centres undefined) | – | – | 38.4 µM and 70 µM | –
16 | COc1cccn(CC(=O)N(C)Cc2ccoc2)c1=O | – | – | > 100 µM | –
17 | CCO[C@H]1CC[C@H]2[C@@H]1OCCN2C(=O)COc1ccccc1 | > 195 | – | – | IC50 [5]: > 50.1 µM; IC50 [6]: > 50.1 µM
18 | CCS(=O)(=O)Nc1ccc2c(c1)C1(CCOCC1)CN2C | – | – | 13.4 µM and 11 µM | –
19 | CCc1ccc2c(C3CN(CC4CCC4)C3)ncn2c1 | – | – | 15.7 µM and 18.7 µM | –
20 | O=C(NC1CCCN(c2ccc(OC(F)F)cc2)C1)c1ccon1 (centres undefined) | – | – | > 100 µM | –
21 | COc1cc(CNc2cnn(C)c2)cc2c1OCCO2 | – | – | > 100 µM | –
22 | CN(C)C(=O)c1cccc(CN2CCN(CCO)CC2)c1 | > 195 | – | – | IC50 [7]: > 100 µM
23 | COc1cccn(CC(=O)N(C)CCCOc2c(C)cccc2C)c1=O | – | – | > 100 µM | –
24 | NC(=O)C1CCCN(Cc2c(-c3ccco3)[nH]c3ncccc23)C1 (centres undefined) | – | – | 67.8 µM and 46 µM | –
25 | COc1ccc2c(c1)C(=O)CC1(CCN(Cc3ccc(F)cc3)CC1)O2 | > 195 | – | – | IC50 [7]: > 100 µM
26 | CN(Cc1cnn(C)c1)C(=O)NC1CCS(=O)(=O)C1 (centres undefined) | > 195 | -4.908 | – | –

Row | SMILES | IC50 [1] [µM] | Percent Effect [2] [%] | IC50 [3] | also measured
27 | Cn1cc(NS(=O)(=O)c2ccc(F)c(F)c2)ccc1=O | – | – | > 100 µM | –
28 | Clc1cc(NCc2ccncc2)nc2[nH]ccc12 | – | – | 18.7 µM and 17.4 µM | –
29 | CC(C(=O)NCc1ccc(N2CCNC(=O)C2)cc1)n1cncn1 (centres undefined) | – | – | 60.1 µM and 77.1 µM | –
30 | COc1cccc(-c2n[nH]c3c2CN(C(=O)c2cccc(=O)[nH]2)CC3)c1 | – | – | 12.9 µM | –
31 | Cn1cc(NC(=O)N2CCN(Cc3cscn3)CC2)ccc1=O | – | – | 8.51 µM and 8.59 µM | –
32 | O=C(c1nc2c(s1)CCCN2CC1CC1)N1CCOCC1 | – | – | 19 µM and 13.2 µM | –
33 | CN(C)CCn1c(=O)oc2ccc(NC(=O)C3CCCO3)cc21 (centres undefined) | – | – | > 100 µM | –
34 | Cc1ccc(NC(=O)Cn2cc(I)cn2)cc1 | > 195 | -1.868 | – | –
35 | COc1cccc(CNCCc2cc(F)cc3c2OCOC3)c1 | > 195 | 75.77 | – | –
36 | COCCNc1nnc(-c2ccc(C)nc2)s1 | > 195 | – | – | IC50 [8]: > 50.1 µM
37 | COCCC(=O)N1CCC(C(=O)c2cc(C)cnc2N)CC1 | > 195 | – | – | IC50 [5]: > 50.1 µM; IC50 [6]: > 50.1 µM
38 | CC(=O)N1CCN(CC2CCOc3ccccc3C2)CC1 (centres undefined) | > 195 | -45.54 | – | –
39 | Cc1ccc(CNC(=O)Nc2cc(C(F)(F)F)c[nH]c2=O)cn1 | > 195 | -4.568 | – | –
40 | CCN1CC[C@@H]2OC[C@H](C(=O)NCc3cccs3)C[C@@H]2C1 | > 195 | – | – | IC50 [7]: > 100 µM
41 | O=C(c1ccc[nH]1)N1CCN(CC2CCOc3ccccc3C2)CC1 (centres undefined) | > 195 | -5.036 | – | –
42 | CN(Cc1cnn(C)c1)C(=O)NC1CCC(O)CC1 (centres undefined) | > 195 | 15.72 | – | –
43 | O=C1CN(Cc2nnc(-c3ccccc3Br)o2)CCN1 | > 195 | 12.25 | – | –
44 | O=C(CCc1ccsc1)NCC1CCN(c2ccccc2)C1 (centres undefined) | > 195 | 6.73 | – | –
45 | OCCNc1nccc(-c2c[nH]nc2-c2ccco2)n1 | > 195 | – | – | IC50 [8]: > 50.1 µM
46 | O=C(CCc1cc(O)no1)N1CCCC(COc2ccc(F)cc2)C1 (centres undefined) | > 195 | 28.51 | – | –
47 | CC(Cn1cccn1)NC(=O)Nc1ccc(N(C)C)nc1 (centres undefined) | > 195 | 0.4135 | – | –
48 | Cc1cnn(CC(C)NCc2nc(-c3ccco3)no2)c1 (centres undefined) | > 195 | -25.07 | – | –
49 | CC(=O)N1CCCC(c2ccc(Cc3ccccc3)cn2)C1 (centres undefined) | > 195 | – | – | IC50 [5]: 15.3 µM; IC50 [6]: 23.5 µM
50 | O=C1CC2(CCN(CC3CCOC3)CC2)CN1Cc1cc(F)cc(F)c1 (centres undefined) | > 195 | -23.28 | – | –
51 | CO[C@H]1CN(S(=O)(=O)c2ccc(F)cc2)C[C@@]12CCCO2 | > 195 | – | – | IC50 [7]: > 100 µM
52 | Cc1cc(NC(=O)NCCc2cccs2)n(C)n1 | > 195 | 9.063 | – | –

Row | SMILES | IC50 [1] [µM] | Percent Effect [2] [%] | IC50 [3] | also measured
53 | Cn1ccnc1-c1cccc(NC(=O)NCCCO)c1 | > 195 | -1.514 | – | –
54 | N#Cc1cccc(SCCS(N)(=O)=O)c1 | > 195 | -35.02 | – | –
55 | Cc1ccc(CC(=O)N2CCOC(c3nc(C)n[nH]3)C2)cn1 (centres undefined) | > 195 | 13.87 | – | –
56 | CCc1cnc(CN(C(C)=O)C2CCN(CCS(C)(=O)=O)C2)o1 (centres undefined) | > 195 | -22.31 | – | –
57 | NC(=O)CN1CCC2(CC1)CC(=O)c1ccc3ccccc3c1O2 | > 195 | – | – | IC50 [7]: > 100 µM
58 | CN(CCCC#N)C1CCCN(Cc2noc(C3CC3)n2)C1 (centres undefined) | > 195 | -67.8 | – | –
59 | NC(=O)C1CCN(C(=O)CCn2ccc3cc(Br)ccc32)CC1 | > 195 | -11.99 | – | –
60 | O=C(NCCO)Nc1cccc(Cl)c1SC(F)F | > 195 | -20.44 | – | –
61 | Cn1ccc(-c2cc(C(=O)N3CCC(O)CC3)c3ccccn23)n1 | > 195 | – | – | IC50 [5]: > 50.1 µM; IC50 [7]: > 100 µM; IC50 [6]: > 50.1 µM
62 | CCc1nnc2n1CCN(C(=O)c1ccc3[nH]cnc3c1)C2 | > 195 | 19.35 | – | –
63 | Cl.NC(=O)COc1ccc(CNCc2ccc(F)c(F)c2)cc1 | > 195 | 13.17 | – | –
64 | CCOCC(=O)N1C[C@@H]2CC[C@H](Oc3ccccc3)[C@@H]2C1 | > 195 | – | – | –
65 | O=C1CO[C@H]2CN(Cc3ccccc3Br)C[C@@H]2N1 | > 195 | – | – | –
66 | OC1CCCN(Cc2ccnc(-c3cccnc3)n2)C1 (centres undefined) | > 195 | – | – | –
67 | CC(C)c1cc(CN2CCC(N)CC2)on1 | > 195 | – | – | –
68 | Cn1nc(C2CN(C(=O)c3ccncc3)C2)c2nccnc21 | > 195 | – | – | –
69 | O=C(CCc1cccnc1)N1CCC(c2cnccn2)CC1 | > 195 | – | – | –
70 | O=C(NCCCO)Nc1cccc(Cl)c1F | > 195 | 24.34 | – | –
71 | COCCNc1nnc(-c2ccccn2)s1 | > 195 | – | – | –
72 | COc1cccc(C(=O)NC(c2ccccn2)[C@H]2CC[C@H](CN)CC2)c1 (some centres undefined) | > 195 | – | – | –
73 | COCCN1CCC(NCc2ccc(F)cc2F)C1 (centres undefined) | > 195 | – | – | –
74 | COCCN(C)C(=O)c1nc2c(s1)CCCN2C | > 195 | – | – | –
75 | Nc1cc2c(nn1)CCN(C(=O)C1CCc3ccccc31)C2 (centres undefined) | > 195 | – | – | –
76 | CCn1cc(N)c(-c2nnc3n2CCCC3)n1 | > 195 | – | – | –
